From ChEMBL document CHEMBL1125946, “Total synthesis of a homochiral arene-fused prostacyclin analog” (Bioorg Med Chem Lett, 1991) come the findings set out here.

The species entered for this experiment is Homo sapiens. The experiment in a line: Concentration required for the inhibition of collagen induced platelet aggregation; inactive. The experiment is classed as functional.

For orientation: IC50 means the concentration needed to halve the response being measured. Read a high IC50 as weaker potency in that assay.

Molecules are shown by their SMILES.

`O=C(O)COc1ccc2c(c1)CC[C@@H]1[C@@H](C#C[C@@H](O)C3CCCCC3)[C@H](O)C[C@H]21` displayed an IC50 greater than 10 µM.
